Assay: gradient 5% acetonitrile 3 min, to 50% in 2 min, to 85% in 15 min, held 3 min, 100 µL/min
Details: column: Zorbax Extend-C18 2.1 x 50 mm; eluents: water / acetonitrile, 0.1% formic acid
Summary of the method: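 Pure standards were analyzed in mixtures of ~100 molecules using HPLC coupled to a quadrupole time-of-flight mass spectrometer, in both positive and negative ionization mode. Separation used a Zorbax Extend-C18 column (2.1 × 50 mm, 1.8 μm) at 100 μL/min, with water and acetonitrile each containing 0.1% formic acid. Dead and dwell volumes were 40 μL and 900 μL, and data were collected over 3 months. Retention time was read from computationally picked adduct peaks, each inspected manually.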

RP-LC retention time	Structure (SMILES)
1040 s	CCOC(=O)Cn1nc(-c2nc(-c3ccc(Cl)cc3)no2)ccc1=O
753 s	Cc1nc2cc(NS(=O)(=O)c3cccc4cccnc34)ccc2s1
768 s	COc1cc(NC(=O)NC2CCN(c3ccccc3)C2=O)cc(OC)c1 (stereo not given)
638 s	CNC(=O)C1CCN(C(=O)Nc2ccc(NC(=O)Nc3ccc(OC)cc3)cc2)CC1
765 s	Cc1cccc2c(=O)n(C3CCN(C(=O)Nc4ccc(F)cc4)CC3)cnc12
862 s	COc1ccc(Cn2nc3ccc(S(=O)(=O)N4CCCC4)cn3c2=O)cc1F
672 s	COc1ccc(CNC(=O)C2CCN(Cc3cn(C)c4ccc(OC)cc34)CC2)c(OC)c1
1160 s	O=C(Nc1nc(-c2nc3ccccc3s2)cs1)c1coc2ccccc2c1=O
685 s	N#CCn1cccc1-c1nc(-c2ccncc2)no1
824 s	O=C(Cn1nc2c3cc(-c4ccc(F)cc4)nn3ccn2c1=O)NC1CCCC1
1180 s	O=S(=O)(Nc1ccc(-c2noc(-c3ccc(Cl)cc3)n2)cc1)c1cccs1
710 s	CCc1ccc(NC(=O)Cn2c(CC)nc3c(c2=O)CN(Cc2ccccc2)CC3)cc1
647 s	O=C(CCNc1c(-c2ccc(F)cc2)nc2cnccn12)NCC1CC1
903 s	COCc1cc2nn(CC(=O)Nc3ccc(F)cc3)c(=O)n2c(-c2ccccc2)n1
597 s	Cc1cccc2c(C(=O)N(C)C)cc(=O)[nH]c12
685 s	CCN1CCn2cc(S(=O)(=O)NCc3ccccc3F)cc2C1=O
567 s	Cc1cccc(CN2CCCn3nc(C(=O)NCCCN4CCOCC4)cc3C2=O)c1
777 s	O=C(Nc1ccc(F)cc1)c1cn(CC(O)c2ccc3c(c2)OCO3)nn1 (stereo not given)
736 s	O=C(O)c1cc2c(s1)CCN(C(=O)c1ccc(Cl)cc1)C2
709 s	CCn1ccc(C(=O)NC2CCCC2)n1
870 s	COc1cccc(-c2noc(Cn3ccn(-c4cc(C)cc(C)c4)c(=O)c3=O)n2)c1OC
1030 s	O=C(Cc1ccc(Cl)cc1)N1CCc2cc(-c3ccno3)ccc21
702 s	COc1ccc(NC(=O)N2CCC3(C2)C(=O)Nc2ccccc23)cc1 (stereo not given)

RP-LC retention time	Structure (SMILES)
1070 s	O=S(=O)(c1ccc(F)cc1)N1CCc2nc(-c3ccc(F)cc3)ncc2C1
705 s	CC(=O)c1ccc(NC(=O)Cn2nc3c(N(C)C4CCCCC4)nccn3c2=O)cc1
762 s	Cc1cc(C)c(-c2noc(C)n2)c(NC(=O)c2ccccc2Br)n1
838 s	O=C(Cc1cc(-c2ccco2)on1)Nc1ccc(F)c(F)c1F
884 s	O=C(Nc1cccnc1)c1cc(-c2ccnc(F)c2)ccc1OCc1ccccc1
607 s	Cn1cccc1-c1cc2n(n1)CCC(=O)N2CCCC(=O)NCCCN1CCCCCC1
694 s	COc1ccc(S(=O)(=O)N2CCC(n3cnnc3C(C)C)CC2)cc1
611 s	O=C(NCCc1ccco1)c1ccc2c(c1)nc1n2CCCCC1
591 s	CN(C)CCNC(=O)c1ccc(CS(=O)c2ccc(Cl)cc2)o1 (stereo not given)
856 s	Cc1cccc(NC(=O)COc2cc(C)nc(N3CCN(c4ccccc4)CC3)n2)c1
644 s	COC(=O)c1ccc(Cl)cc1NC(=O)N1CCc2nc[nH]c2C1
801 s	CN1C(=O)c2cc(C(=O)N3CCN(c4ccccc4F)CC3)nn2CC1(C)C(=O)NC1CCCC1 (stereo not given)
1070 s	COc1ccc(-c2nc(-c3cn(-c4cccc(Cl)c4)nn3)no2)c(OC)c1
700 s	Cc1oc(-c2[nH]ncc2C(=O)N2CCCC2)cc1S(=O)(=O)NCc1ccccc1
884 s	COCc1cc(=O)n(CC(=O)Nc2cccc(Cl)c2)c(N2CCOCC2)n1
566 s	Cc1[nH]c(=O)[nH]c(=O)c1CCc1nnc(SCC(=O)NCc2ccco2)o1
950 s	O=S(=O)(c1ccccc1Cl)N1CCC(c2noc(COCC3CC3)n2)CC1
832 s	COc1cccc(OC)c1C(=O)Nc1nnc(SCc2nnc(-c3ccccc3)o2)s1
683 s	O=S(=O)(Cc1ccc(Cl)cc1)N1CCC(CN2CCCCCC2)CC1
833 s	CCc1ccc(NC(=O)N2CCC(CC(=O)N3CCCCC3)CC2)cc1
810 s	O=C(Cn1c(=O)c(S(=O)(=O)c2ccccc2)cc2ccccc21)NCc1ccco1
774 s	O=C(Cc1ccsc1)N1CCC2(CC1)N=C(c1ccccc1)NO2
787 s	O=S(=O)(Cc1ccccc1)N1CCC(n2c(-c3ccoc3)nc3cccnc32)C1 (stereo not given)

RP-LC retention time	Structure (SMILES)
973 s	COCCN(CC(=O)N1CCc2sccc2C1COc1ccccc1C)C(=O)CC(C)C (stereo not given)
933 s	CCOC(=O)c1cccc(NC(=O)C2CCCN(c3ccc(=O)n(-c4ccc(F)cc4)n3)C2)c1 (stereo not given)
997 s	O=C(Nc1cccc(Cl)c1)N1CCc2nc(-c3ccccc3)ncc2C1
569 s	Cc1oc(-c2[nH]ncc2C(=O)N2CCCC2)cc1S(=O)(=O)NCCCN(C)C
812 s	CCOC(CNCc1cc(C)c2[nH]c3ccccc3c2c1C)OCC
791 s	COC(=O)c1c(NCCc2ccccc2)c2cc(F)ccc2[nH]c1=O
1060 s	COCc1cnc2c(c1SCc1ccc(C)cc1)c(=O)n(C)c(=O)n2C
560 s	O=C(CCC1CCCN(c2cc(NC3CC3)ncn2)C1)NCc1cccnc1 (stereo not given)
986 s	O=C(c1ccc2ccnc(N3CCN(c4ccc(Cl)cc4)CC3)c2c1)N1CCCCCC1
810 s	CCOC(=O)COc1cc(-c2ccc(F)cc2)nc2ccc(NC(=O)C3CCC3)cc12
648 s	COCC(=O)Nc1ccccc1NC(=O)c1ccsc1
1290 s	Cn1nc(-c2nc(C3CC3)no2)c2c1CCN(C(=O)c1ccc(C(C)(C)C)cc1)C2
873 s	COc1ccc(Cl)cc1NC(=O)NC1CCN(c2ccccc2)C1=O (stereo not given)
830 s	COc1ccc2nc(C(=O)NCc3ccccc3Cl)cn2n1
890 s	CCOC(=O)c1[nH]c(C)c(C(=O)C(C)N(C(=O)c2ccc(F)cc2)C2CC2)c1C (stereo not given)
638 s	O=C(OC1C[C@@H]2CC3C[C@@H](C1)N2CC3=O)c1c[nH]c2ccccc12 (stereo not given in full)
724 s	COc1cccc(CN2C[C@@H]3C(=O)N(Cc4ccc5c(c4)OCO5)C(=O)[C@@H]3C2)c1
885 s	Brc1ccc(OCc2nn3c(-c4cccnc4)nnc3s2)cc1
766 s	O=C(NCc1ccc2c(c1)OCO2)C1CCN(C(=O)c2ccc(Cl)cc2)CC1
630 s	COc1ccc(-c2noc(-c3ccc(NCCN(C)C)nn3)n2)cc1
771 s	COc1cccc(CNC(=O)Cn2c(=O)c3cc(-c4ccco4)nn3c3ncccc32)c1
899 s	CCC(CC)C(=O)N1CCc2c(c(-c3nnc(-c4ccccc4Cl)o3)nn2C)C1
774 s	Cc1ccc(NC(=O)CN2C(=O)NC3(CCCCC3)C2=O)c(C)c1

RP-LC retention time	Structure (SMILES)
657 s	CCCNC(=O)N(C1CCOCC1)C1CCN(C(=O)c2cccs2)CC1
858 s	CN(Cc1ccco1)c1nc(-c2ccc(Cl)cc2)nc2ccccc12
1080 s	Cc1nc(-c2cc(S(=O)(=O)NCc3ccccc3Cl)c(C)s2)cs1
600 s	Cc1nn(C)c(C)c1C(=O)N1CCC2(CCC2O)CC1 (stereo not given)
718 s	Cc1cccc(S(=O)(=O)N2CCC(c3cc(=O)n4nccc4n3C)CC2)c1
833 s	CCC(C)NC(=O)Cn1c(=O)ccc2cc(S(=O)(=O)N3CCC(C)CC3)ccc21 (stereo not given)
611 s	CC(C)(C)NC(=O)N1CCC(N2CC3(CCCCC3)C2c2ccncc2)CC1 (stereo not given)
603 s	CCc1nccn1Cc1nc(-c2ccccc2F)no1
567 s	CCC(=O)N1CCCC(C(=O)NC2CC2)C1 (stereo not given)
906 s	CC(C)CC(=O)Nc1cnc(-c2ccccc2)nc1
653 s	O=C([C@@H]1C[C@H](F)CN1C(=O)c1ccsc1)N1CCCCC1
659 s	Cn1ncc(N2CCC(C(=O)N3CCN(C(=O)C4COc5ccccc5O4)CC3)CC2)cc1=O (stereo not given)
843 s	Cc1cc(Cl)ccc1NC(=O)C1CC(=O)N(c2ccc3c(c2)CCN3C(=O)C2CC2)C1 (stereo not given)
1170 s	CCCc1nnsc1C(=O)Nc1nnc(-c2cc3cccc(OC)c3o2)o1
848 s	COc1ccc(-c2ccnc3cc(C(=O)Nc4ccc5c(c4)OCO5)nn23)cc1OC
687 s	O=C(c1cnn2c(C(F)(F)F)cc(-c3ccccc3)nc12)N1CCN(c2ccccn2)CC1
816 s	COc1ccccc1N1CCN(CCN(C(=O)C2CCCCC2)c2ccccn2)CC1
943 s	O=C(C1c2ccccc2CCN1C(=O)C1CC1)N1CCN(c2ccc(F)cc2)CC1 (stereo not given)
963 s	CC(C)CCNC(=O)CN1c2ccc(F)cc2-c2ccccc2S1(=O)=O
652 s	O=C(N[C@H]1C[C@@H]2C[C@H]1CN2C(=O)NCc1ccco1)c1ccccc1

Structure (SMILES)	RP-LC retention time
CCC1=CC2CN3CCc4c([nH]c5ccccc45)[C@@](C(=O)OC)(C2)C13	681 s

— the METLIN SMRT retention time set (Domingo-Almenara et al. 2019)
